From patent US11034685B2, “Aminopyridine derivatives as TAM family kinase inhibitors” (SignalChem Lifesciences Corporation, priority 2013, dated 2021) come the findings set out here.

Common to all, as to format: biochemical
For assay [1], the target named is T1, Recombinant human Tyro3 (455-end) (Homo sapiens, UniProt Q06418).
T1 construct: GST (N); made in house; host or cells: Sf9 insect cells (baculovirus)
T1 sequence (Q06418 455-890 limits assumed): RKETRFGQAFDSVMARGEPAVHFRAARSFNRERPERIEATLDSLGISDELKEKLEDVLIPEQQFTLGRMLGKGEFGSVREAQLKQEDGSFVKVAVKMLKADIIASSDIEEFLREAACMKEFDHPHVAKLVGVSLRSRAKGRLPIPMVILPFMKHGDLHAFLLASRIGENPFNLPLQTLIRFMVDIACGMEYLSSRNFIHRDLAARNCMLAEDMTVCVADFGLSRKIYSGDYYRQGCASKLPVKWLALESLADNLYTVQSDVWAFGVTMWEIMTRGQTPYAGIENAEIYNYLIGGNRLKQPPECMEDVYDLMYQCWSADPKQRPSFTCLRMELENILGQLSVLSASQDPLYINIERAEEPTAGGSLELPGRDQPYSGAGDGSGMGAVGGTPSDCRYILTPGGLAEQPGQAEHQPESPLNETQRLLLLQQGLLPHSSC
Briefly: Kinase enzymatic activity assay ([33P]-ATP phosphate transfer), Tyro3. To be noted: inhibitory activity on Tyro3; class symbols. The method, boiled down:
(§1)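 Kinases were N-terminal GST-tagged constructs expressed in Sf9 cells, with poly(Glu:Tyr 4:1) as substrate. Reactions ran in MOPS buffer pH 7.2 with MgCl2 and [33P]-ATP (250 μM cocktail stock) for 30 min at room temperature. Filter-bound radioactivity gave % inhibition, and IC50 was taken from serial dilutions.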

A further assay deals with T2, human Axl (473-end) (Homo sapiens, UniProt P30530).
T2 construct: GST (N); made in house; host or cells: Sf9 insect cells (baculovirus)
T2 sequence (P30530 473-894 limits assumed): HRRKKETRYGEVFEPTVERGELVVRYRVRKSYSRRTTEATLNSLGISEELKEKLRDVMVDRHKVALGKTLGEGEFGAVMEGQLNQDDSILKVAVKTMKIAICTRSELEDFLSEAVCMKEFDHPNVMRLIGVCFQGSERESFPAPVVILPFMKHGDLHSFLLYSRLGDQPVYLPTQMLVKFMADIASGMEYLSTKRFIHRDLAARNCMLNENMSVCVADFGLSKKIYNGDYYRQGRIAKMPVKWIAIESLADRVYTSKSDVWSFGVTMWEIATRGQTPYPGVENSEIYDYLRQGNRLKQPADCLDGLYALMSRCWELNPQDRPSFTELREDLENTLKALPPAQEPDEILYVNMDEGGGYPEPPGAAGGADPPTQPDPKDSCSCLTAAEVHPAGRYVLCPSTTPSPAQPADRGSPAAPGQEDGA
As to the kind of experiment: Kinase enzymatic activity assay ([33P]-ATP phosphate transfer), Axl. To be noted: inhibitory activity on Axl; class symbols. In a few lines: as §1

The target in a further assay is T3, human Mer (578-872) (Homo sapiens, UniProt Q12866).
T3 construct: GST (N); made in house; host or cells: Sf9 insect cells (baculovirus)
T3 sequence (Q12866 578-872): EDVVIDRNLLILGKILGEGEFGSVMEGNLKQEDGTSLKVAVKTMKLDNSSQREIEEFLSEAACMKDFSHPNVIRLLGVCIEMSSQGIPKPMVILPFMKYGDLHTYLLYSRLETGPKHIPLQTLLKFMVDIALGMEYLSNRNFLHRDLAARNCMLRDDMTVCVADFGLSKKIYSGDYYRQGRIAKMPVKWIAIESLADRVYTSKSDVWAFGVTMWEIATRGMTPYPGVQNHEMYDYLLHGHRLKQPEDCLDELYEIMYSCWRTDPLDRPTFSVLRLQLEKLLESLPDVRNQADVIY
As to the kind of experiment: Kinase enzymatic activity assay ([33P]-ATP phosphate transfer), Mer. To be noted: inhibitory activity on Mer; class symbols. In a few lines:
as §1

pIC50: −log10 of the molar value.

For the molecule `CC(C)(C)OC(=O)N1CCC(n2cc(-c3cnc(N)c(-c4nnc(-c5nccs5)o4)c3)cn2)CC1` [tert-butyl 4-(4-(6-amino-5-(5-(thiazol-2-yl)-1,3,4-oxadiazol-2-yl)pyridin-3-yl)-1H-pyrazol-1-yl)piperidine-1-carboxylate], the pIC50 is 5.00 to 6.00 in assay [1], 6.00 to 6.30 at human Axl (473-end) and 5.00 to 6.00 at human Mer (578-872).

As for `CC(C)(C)OC(=O)N1CCC(n2cc(-c3cnc(N)c(-c4nnc(Cc5ccccc5)o4)c3)cn2)CC1` [tert-butyl 4-(4-(6-amino-5-(5-benzyl-1,3,4-oxadiazol-2-yl)pyridin-3-yl)-1H-pyrazol-1-yl)piperidine-1-carboxylate], the pIC50 in assay [1] is 5.00 to 6.00; on human Axl (473-end), above 6.30; against human Mer (578-872), 5.00 to 6.00.

Turning to `CC(C)(C)OC(=O)N1CCC(n2cc(-c3cnc(N)c(-c4nnc(-c5ccccc5)o4)c3)cn2)CC1` [tert-butyl 4-(4-(6-amino-5-(5-phenyl-1,3,4-oxadiazol-2-yl)pyridin-3-yl)-1H-pyrazol-1-yl)piperidine-1-carboxylate], the pIC50 (in assay [1]; at human Axl (473-end); against human Mer (578-872)) was 5.00 to 6.00 each time.

Consider `CC(C)(C)OC(=O)N1CCC(n2cc(-c3cnc(N)c(-c4ncc(-c5ccccc5)o4)c3)cn2)CC1` [tert-butyl 4-(4-(6-amino-5-(5-phenyloxazol-2-yl)pyridin-3-yl)-1H-pyrazol-1-yl)piperidine-1-carboxylate], for which the pIC50 was 6.00 to 6.30 in assay [1], above 6.30 against human Axl (473-end) and 5.00 to 6.00 at human Mer (578-872).

Usually pIC50 stands for the IC50 on a negative log10 scale, so that one unit is a factor of ten.
